Measured values: paper PMC9166766 (Experimental & Molecular Medicine, 2022)
No end group written: not given here.

Experiments:
[1] = system: NFATC2 dephosphorylation; assay: NFAT mobility shifting assay in Jurkat T cells; format: cell-based; conditions: HA-mCherry-tagged peptides, PMA and ionomycin 2 h, n = 7
Procedure: Jurkat T cells expressing GST-tagged peptides were treated with PMA and ionomycin for activation. […] For dephosphorylation of NFATC2, Jurkat T cells were treated with PMA and ionomycin for 2 h. c Hyper- and hypophosphorylated NFATC2 of b was measured using ImageJ, and the hypo/hyper ratio was calculated (n = 7). d Snapshot images of the activated Jurkat T cells expressing the indicated peptides and tNFATC2 were obtained using confocal microscopy. The expression and localization of peptides and tNFATC2 are shown as mCherry (red) and EGFP (green), respectively. Nuclei were stained with Hoechst (blue). Scale bar, 50 μm e Nuclear-localized tNFATC2 was measured by calculating the colocalization ratio between Hoechst (M1) and EGFP (M2). […] Statistical differences were determined using a two-tailed Student’s t-test (a, c) or one-way ANOVA (e). ***p < 0.001, NC negative control.

[2] = system: tNFATC2 nuclear import; assay: Nuclear localization of EGFP-tNFATC2 by confocal microscopy in Jurkat T cells; format: cell-based; conditions: 40 nM PMA and 1 μM ionomycin 4 h, FK506 0.5 μM, n = 10-12
Procedure: We transfected Jurkat T cells with the pCAG-EGFP-tNFATC2-IRES-mCherry-peptide by electroporation. After two days, we pretreated these cells with 0.5 μM FK506 for 30 min. Then, we treated them with 40 nM PMA and 1 μM ionomycin under culture conditions for 4 h. Before imaging by a confocal laser scanning microscope (Nikon, Tokyo, Japan), we treated the cells with 10 μg/ml Hoechst 33342 (Invitrogen, Waltham, MA, USA) to stain nuclei. Colocalization analysis of mCherry and Hoechst was performed with ImageJ and its plugin JACoP to measure the Manders coefficient[23],[24].
Scale bar, 50 μm e Nuclear-localized tNFATC2 was measured by calculating the colocalization ratio between Hoechst (M1) and EGFP (M2).

[3] = system: Jurkat T cells (PMA and ionomycin-induced gene expression); assay: mRNA sequencing of activated Jurkat T cells; format: cell-based, human
Procedure: We then extracted RNA from these cells. Construction of the cDNA library and next-generation sequencing was performed at LAS (Gimpo, Korea). We sequenced all samples on an Illumina NextSeq 500 system with 75 paired-end reads. For the RNA sequencing analysis, reads for each sample were aligned to the human genome (GRCh37/hg19 genome assembly) using STAR 2.4.0.1[25] with default settings. We used HOMER tools to quantify and normalize the defined genes in RefSeq transcripts. FPKM normalized genes were hierarchically clustered using Cluster3.0[26]. We visualized refined data with Java Treeview (http://jtreeview.sourceforge.net). We conducted gene ontology analysis of each cluster using the DAVID web tool (https://david.ncifcrf.gov). Finally, we visualized the expression levels of target genes using the Integrative Genomics Viewer (http://software.broadinstitute.org/software/igv). The raw data were submitted to the NCBI Gene Expression Omnibus under accession number GSE185561.
Fig. 3 The CABIN1 peptide inhibits T-cell activation. a Heatmap of altered genes affected by FK506 treatment or CABIN1 peptide expression upon T-cell activation. b Gene Ontology analysis of cluster III. c mRNA expression levels of genes included in cluster III. d qRT-PCR data of genes in c. The experiment was independently repeated at least three times, and the data are presented as the mean ± standard deviation. Statistical differences were determined using two-tailed Student’s t-test. *p < 0.05, **p < 0.01, ***p < 0.001, NC negative control.

CABIN1-L-1-2: 10 amino acids from proline 2146 to proline 2155 of full-length CABIN1; expressed GST-, GAL4 DBD- or HA-mCherry-tagged (PEITVTPPTP; also: expressed GST-, GAL4 DBD- or HA-mCherry-tagged, end not given here)
NFATC2 dephosphorylation / band shift [1]: significantly inhibited the NFATC2 band shift | proportion of nuclear-localized tNFATC2 [2]: slightly higher | CD27 and CD70 expression ([3]; Jurkat, PMA and ionomycin 8 h): repressed | RNA levels of T-cell activation markers (IL2, IL3, NFATC1, CCL4, CCL20, CXCL8) ([3]; Jurkat, PMA and ionomycin 8 h): reduced the RNA levels | TM4SF1 expression ([3]; P+I 8 h, NC 0, NC_P+I 3.268): 0.907 FPKM | CD200 expression ([3]; P+I 8 h, NC 0, NC_P+I 3.759): 0.094 FPKM | ZP4 expression ([3]; P+I 8 h, NC 0, NC_P+I 6.38): 5.182 FPKM | CCL3L1 expression ([3]; P+I 8 h, NC 0, NC_P+I 6.448): 0.079 FPKM | CCL3L3 expression ([3]; P+I 8 h, NC 0, NC_P+I 6.524): 0.079 FPKM | CCL1 expression ([3]; P+I 8 h, NC 0, NC_P+I 9.86): 0.415 FPKM | NR4A2 expression ([3]; P+I 8 h, NC 0, NC_P+I 10.173): 0.356 FPKM | CCL4L2 expression ([3]; P+I 8 h, NC 0, NC_P+I 12.758): 0.328 FPKM | CCL4L1 expression ([3]; P+I 8 h, NC 0, NC_P+I 13.27): 0.328 FPKM | CSF2 expression ([3]; P+I 8 h, NC 0, NC_P+I 23.497): 0.314 FPKM | XCL1 expression ([3]; P+I 8 h, NC 0, NC_P+I 49.113): 1.144 FPKM | CCL3 expression ([3]; P+I 8 h, NC 0, NC_P+I 52.239): 0.502 FPKM | CCL20 expression ([3]; P+I 8 h, NC 0, NC_P+I 59.393): 1.279 FPKM | IL3 expression ([3]; P+I 8 h, NC 0, NC_P+I 229.054): 6.298 FPKM | CCL4 expression ([3]; P+I 8 h, NC 0, NC_P+I 247.287): 4.062 FPKM | IL2 expression ([3]; P+I 8 h, NC 0, NC_P+I 397.807): 12.964 FPKM | C3 expression ([3]; P+I 8 h, NC 0.006, NC_P+I 3.907): 1.329 FPKM | TNS3 expression ([3]; P+I 8 h, NC 0.008, NC_P+I 13.196): 1.418 FPKM | PLS3 expression ([3]; P+I 8 h, NC 0.019, NC_P+I 4.717): 0.37 FPKM | CREB5 expression ([3]; P+I 8 h, NC 0.031, NC_P+I 4.533): 1.966 FPKM | IRF4 expression ([3]; P+I 8 h, NC 0.034, NC_P+I 8.439): 2.092 FPKM | CXCL8 expression ([3]; P+I 8 h, NC 0.037, NC_P+I 26.755): 3.327 FPKM | SLAMF1 expression ([3]; P+I 8 h, NC 0.042, NC_P+I 5.663): 0.275 FPKM | TNFSF14 expression ([3]; P+I 8 h, NC 0.045, NC_P+I 69.958): 4.255 FPKM | IL21R-AS1 expression ([3]; P+I 8 h, NC 0.048, NC_P+I 23.616): 3.991 FPKM | XCL2 expression ([3]; P+I 8 h, NC 0.056, NC_P+I 70.747): 2.074 FPKM | LIF expression ([3]; P+I 8 h, NC 0.063, NC_P+I 3.697): 0.231 FPKM | SHC4 expression ([3]; P+I 8 h, NC 0.069, NC_P+I 4.391): 0.686 FPKM | RGS16 expression ([3]; P+I 8 h, NC 0.077, NC_P+I 29.102): 5.595 FPKM | IL21R expression ([3]; P+I 8 h, NC 0.1, NC_P+I 34.712): 5.255 FPKM | CRTAM expression ([3]; P+I 8 h, NC 0.104, NC_P+I 100.175): 9.51 FPKM | ZNF704 expression ([3]; P+I 8 h, NC 0.107, NC_P+I 4.985): 0.183 FPKM | NTRK1 expression ([3]; P+I 8 h, NC 0.167, NC_P+I 7.941): 1.657 FPKM | PHEX expression ([3]; P+I 8 h, NC 0.188, NC_P+I 17.377): 0.786 FPKM | SORBS1 expression ([3]; P+I 8 h, NC 0.196, NC_P+I 5.08): 0.511 FPKM | TIAM2 expression ([3]; P+I 8 h, NC 0.255, NC_P+I 4.095): 0.301 FPKM | CRIM1 expression ([3]; P+I 8 h, NC 0.268, NC_P+I 3.029): 0.333 FPKM | SERPINB2 expression ([3]; P+I 8 h, NC 0.28, NC_P+I 85.882): 14.103 FPKM | CCND2 expression ([3]; P+I 8 h, NC 0.321, NC_P+I 6.436): 0.99 FPKM | CXCR3 expression ([3]; P+I 8 h, NC 0.604, NC_P+I 14.322): 1.803 FPKM | ISM1 expression ([3]; P+I 8 h, NC 0.798, NC_P+I 56.893): 3.737 FPKM | C10orf54 expression ([3]; P+I 8 h, NC 0.84, NC_P+I 7.506): 0.487 FPKM | CSF1 expression ([3]; P+I 8 h, NC 0.848, NC_P+I 13.43): 2.594 FPKM | SLC35E4 expression ([3]; P+I 8 h, NC 0.887, NC_P+I 9.069): 1.517 FPKM | ZNF827 expression ([3]; P+I 8 h, NC 0.975, NC_P+I 3.401): 1.372 FPKM | CD70 expression ([3]; P+I 8 h, NC 1.101, NC_P+I 61.146): 7.606 FPKM | PAM expression ([3]; P+I 8 h, NC 1.154, NC_P+I 5.577): 1.934 FPKM | FOXO1 expression ([3]; P+I 8 h, NC 1.167, NC_P+I 8.247): 3.736 FPKM | IRF8 expression ([3]; P+I 8 h, NC 1.168, NC_P+I 14.813): 1.914 FPKM | SCHIP1 expression ([3]; P+I 8 h, NC 1.25, NC_P+I 3.933): 1.333 FPKM | FOSL2 expression ([3]; P+I 8 h, NC 1.294, NC_P+I 7.508): 2.362 FPKM | TNFSF9 expression ([3]; P+I 8 h, NC 1.393, NC_P+I 7.107): 2.651 FPKM | IQCJ-SCHIP1 expression ([3]; P+I 8 h, NC 1.402, NC_P+I 4.253): 1.234 FPKM | STAT5A expression ([3]; P+I 8 h, NC 1.417, NC_P+I 9.105): 3.055 FPKM
